Data from PMC6212767 (2018).
Each block holds one molecule with its values, some of them ahead of it.

Columns and labels:
[1] = tested on: poly[d(G-C)2] (DNA, polymer) GC; assay: circular dichroism; details: 25 mM NaCl; 10 mM phosphate, pH 7.0; ~100 μM bp DNA; intercalation
[2] = tested on: poly[d(G-C)2] (DNA, polymer) GC; assay: UV melting, 260 nm; details: per base
[3] = tested on: poly[d(A-T)2] (DNA, polymer) AT; assay: circular dichroism; details: 25 mM NaCl; 10 mM phosphate, pH 7.0; ~100 μM bp DNA; minor groove
[4] = tested on: poly[d(A-T)2] (DNA, polymer) AT; assay: ethidium bromide displacement fluorescence; details: apparent; per base pair; ethidium displaced; slightly lower than with poly[d(G-C)2]
[5] = tested on: poly[d(G-C)2] (DNA, polymer) GC; assay: ethidium bromide displacement fluorescence; details: apparent, per base pair, ethidium displaced, buffer as in cited literature

binding [1]: yes
SMILES: CC[n+]1c(-c2ccccc2)c2cc(N)ccc2c2ccc(N)cc21

ΔTm ([2]; compound ratio for methyl green not stated in material): +5.2 °C
SMILES: CN(C)c1ccc(C(=C2C=CC(=[N+](C)C)C=C2)c2ccc([N+](C)(C)C)cc2)cc1

binding [3]: yes
SMILES: Cn1cc(NC(=O)c2cc(NC(=O)CN=C(N)N)cn2C)cc1C(=O)NCCC(=N)N

binding [4]: yes
Kapp [5]: ~ 1 × 10^7 M(bp)^−1
ΔTm ([2]; r = 0.1, biphasic, first derivative transition d1, second transition d2 -1.5 ± 1.2 °C): -18.5 ± 1.2 °C
SMILES: [Cl-].[Cl-].[Cl-].[Cl-].[Cu+2].[Cu+2].c1ccc(CN(Cc2ccc3ccc(CN(Cc4ccccn4)Cc4ccccn4)cc3c2)Cc2ccccn2)nc1
